One block for each compound: values may come before it.
Experiments:
Assay type in all cases: biochemical
[1] = molecular target: T1, p38 α (Homo sapiens, UniProt Q16539); assay: ADP-Glo kinase assay (Promega CMGC-1 kinase selectivity profiling system)
T1 construct: gene MAPK14

[2] = molecular target: T1, p38 α; assay: ADP-Glo kinase assay (Promega CMGC-1), % inhibition at […]
[3] = molecular target: T1, p38 α; assay: ADP-Glo kinase assay (Promega CMGC-1 kinase selectivity profiling system), dose response […]

T1 sequence (Q16539 2-360): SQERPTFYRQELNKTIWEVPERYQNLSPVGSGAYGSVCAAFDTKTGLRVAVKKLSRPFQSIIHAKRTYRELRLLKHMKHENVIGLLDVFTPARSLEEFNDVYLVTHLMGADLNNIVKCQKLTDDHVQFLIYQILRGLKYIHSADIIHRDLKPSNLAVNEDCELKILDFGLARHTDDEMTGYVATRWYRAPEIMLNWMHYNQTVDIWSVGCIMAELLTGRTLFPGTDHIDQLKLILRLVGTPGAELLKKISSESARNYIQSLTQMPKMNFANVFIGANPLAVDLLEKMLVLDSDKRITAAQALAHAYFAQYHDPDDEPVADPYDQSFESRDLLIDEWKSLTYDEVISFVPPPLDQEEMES

- IC50 [1]: 12 µM
Structure (SMILES): COC(=O)[C@H](Cc1c[nH]c2ccccc12)NC(=O)/C=C/c1ccc(O)c(O)c1 [Javamide-II-methyl, Methyl (E)-(3-(3,4-dihydroxyphenyl)acryloyl) tryptophanate]

- inhibition at 5 µM [2]: 31.5%
Structure (SMILES): O=C(/C=C/c1ccc(O)c(O)c1)N[C@@H](Cc1c[nH]c2ccccc12)C(=O)O [Javamide-II, javamide-II]

- IC50 [3]: 9.9 µM
Structure (SMILES): CCOC(=O)[C@H](Cc1c[nH]c2ccccc12)NC(=O)/C=C/c1ccc(O)c(O)c1 [Javamide-II-ethyl, javamide-II-O-ethyl ester]

From PMC5751305, “In Silico Screening and In Vitro Activity Measurement of Javamide Analogues as Potential p38 MAPK Inhibitors” (International Journal of Molecular Sciences, 2017)
